The target of this test is T1, human type 1 glycine transporter (GlyT1) (Homo sapiens, UniProt P48067).
T1 construct: T98G cells (glioma cells) expressing human type 1 glycine transporter (GlyT1) were used
T1 sequence (P48067 1-706): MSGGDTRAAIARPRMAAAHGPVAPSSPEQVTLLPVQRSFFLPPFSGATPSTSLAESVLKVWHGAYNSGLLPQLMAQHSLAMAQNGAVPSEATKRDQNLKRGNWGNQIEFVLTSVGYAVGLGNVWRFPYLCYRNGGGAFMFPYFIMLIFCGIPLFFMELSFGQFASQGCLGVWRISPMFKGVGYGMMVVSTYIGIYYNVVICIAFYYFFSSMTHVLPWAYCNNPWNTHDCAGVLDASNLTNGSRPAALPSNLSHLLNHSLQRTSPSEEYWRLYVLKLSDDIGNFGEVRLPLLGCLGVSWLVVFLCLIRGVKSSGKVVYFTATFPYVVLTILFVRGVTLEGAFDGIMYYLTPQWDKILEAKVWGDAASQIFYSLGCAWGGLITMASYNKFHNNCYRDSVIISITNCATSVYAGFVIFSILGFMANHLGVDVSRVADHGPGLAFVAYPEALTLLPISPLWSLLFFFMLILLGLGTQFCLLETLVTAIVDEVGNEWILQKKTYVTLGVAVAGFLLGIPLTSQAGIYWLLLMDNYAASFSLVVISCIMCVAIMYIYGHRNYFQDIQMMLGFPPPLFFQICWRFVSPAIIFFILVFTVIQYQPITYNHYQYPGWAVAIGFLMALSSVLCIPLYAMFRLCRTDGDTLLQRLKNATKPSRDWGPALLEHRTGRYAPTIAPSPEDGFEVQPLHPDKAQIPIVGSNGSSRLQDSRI
Briefly: Glycine uptake inhibition experiment ([3H]glycine uptake). The class given is cell-based. In outline:
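T98G glioma cells expressing human GlyT1 were pretreated 10 min with compound in HEPES buffer pH 7.4 (0.2% BSA), then incubated with compound plus 250 nM final [3H]glycine for 15 min at room temperature. Intracellular radioactivity was counted after NaOH lysis; 10 μM ALX5407 defined non-specific uptake. IC50 came from 10^−9–10^−5 M curves.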

These results are taken from US20160130278A1 (TAISHO PHARMACEUTICAL CO., LTD, priority 2013, published 2016).

`O=C(NC(c1ccccc1Cl)C1(O)CCC(F)(F)CC1)c1ccc(C(F)(F)F)nc1Cl` (single isomer, unassigned) [Compound 409, 2-chloro-N-[(2-chlorophenyl)(4,4-difluoro-1-hydroxycyclohexyl)methyl]-6-(trifluoromethyl)pyridine-3-carboxamide]: for the setting “human GlyT1”, the IC50 (in general, the point on the concentration scale where inhibition reaches its midpoint) is 1100 nM.

As for `O=C(NC(c1cccc(Cl)c1F)C1(O)CCC(F)(F)CC1)c1nc(C(F)(F)F)ccc1Cl` (single isomer, unassigned) [Compound 226, 3-chloro-N-[(3-chloro-2-fluorophenyl)(4,4-difluoro-1-hydroxycyclohexyl)methyl]-6-(trifluoromethyl)pyridine-2-carboxamide], the 50% inhibitory concentration (IC50) (GlyT1) was found to be 1300 nM.

Under “GlyT1”, `CCn1cc(-c2cccc(C(NC(=O)c3ncc(Cl)cc3C(F)(F)F)C3(O)CCC(F)(F)CC3)c2)cn1` (stereo not shown) [Compound 206, 5-chloro-N-{(4,4-difluoro-1-hydroxycyclohexyl)[3-(1-ethyl-1H-pyrazol-4-yl)phenyl]methyl}-3-(trifluoromethyl)pyridine-2-carboxamide] gave an IC50 of 8700 nM.

`O=C(NC(c1ccccc1F)C1(O)CCCC1)c1nccc(C(F)(F)F)c1Cl` (single isomer, unassigned) [Compound 60, 3-chloro-N-[(2-fluorophenyl)(1-hydroxycyclopentyl)methyl]-4-(trifluoromethyl)pyridine-2-carboxamide]: it took 200 nM to reach half-maximal inhibition (GlyT1) (IC50).

`O=C(NC(c1cc(Cl)ccn1)C1(O)CCC(F)(F)CC1)c1cc(C(F)(F)F)cnc1Cl` (single isomer, unassigned) [Compound 360, 2-chloro-N-[(4-chloropyridin-2-yl)(4,4-difluoro-1-hydroxycyclohexyl)methyl]-5-(trifluoromethyl)pyridine-3-carboxamide] registered an IC50 (GlyT1) of 520 nM.

Where the note is “GlyT1”, `O=C(NC(c1cccc(F)c1)C1(O)CCCC1)c1cccc(C(F)(F)F)c1Cl` (single isomer, unassigned) [Compound 72, 2-chloro-N-[(3-fluorophenyl)(1-hydroxycyclopentyl)methyl]-3-(trifluoromethyl)benzamide] registered an IC50 of 7100 nM.

For the molecule `Cc1cc(C(=O)NC(c2cccc(F)c2Cl)[C@]2(O)CC[C@@H](F)CC2)c2cnn(C(C)C)c2n1` (single isomer, unassigned) [Compound 269, N-[(2-chloro-3-fluorophenyl)(cis-4-fluoro-1-hydroxycyclohexyl)methyl]-6-methyl-1-(propan-2-yl)-1H-pyrazolo[3,4-b]pyridine-4-carboxamide], the midpoint of inhibition (GlyT1), the IC50, lay at 1700 nM.

Regarding `O=C(N[C@@H](c1cccc(F)c1)C1(O)CCC(F)(F)CC1)c1nccc(C(F)(F)F)c1Cl` (single isomer, unassigned) [Compound 233, 3-chloro-N-[(4,4-difluoro-1-hydroxycyclohexyl)(3-fluorophenyl)methyl]-4-(trifluoromethyl)pyridine-2-carboxamide], under “GlyT1”, the half-maximal inhibitory concentration (IC50) came out at 120 nM.

Regarding `CCn1cc(-c2cccc(C(NC(=O)c3ccnc(C(F)(F)F)c3)C3(O)CCC(F)(F)CC3)c2)cn1` (stereo not shown) [Compound 172, N-{(4,4-difluoro-1-hydroxycyclohexyl)[3-(1-ethyl-1H-pyrazol-4-yl)phenyl]methyl}-2-(trifluoromethyl)pyridine-4-carboxamide], the IC50 (GlyT1) is 5000 nM.

`O=C(NC(c1cccc(-c2cccnc2)c1)C1(O)CCCCC1)c1nccc(C(F)(F)F)c1Cl` (stereo not shown) [Compound 26, 3-chloro-N-{(hydroxycyclohexyl)[3-(pyridin-3-yl)phenyl]methyl}-4-(trifluoromethyl)pyridine-2-carboxamide]: the IC50 (GlyT1) was determined as 80 nM. This IC50 lies about 62-fold lower than the previous one.

Turning to `O=C(N[C@H](c1cccc(Br)c1)[C@]1(O)CC[C@@H](F)CC1)c1nccc(C(F)(F)F)c1Cl` [Compound 109, N-[(R)-(3-bromophenyl)(cis-4-fluoro-1-hydroxycyclohexyl)methyl]-3-chloro-4-(trifluoromethyl)pyridine-2-carboxamide], 6100 nM corresponded to half-maximal inhibition (GlyT1) (IC50).

In turn, `O=C(NC(c1cccc(F)c1Cl)[C@]1(O)CC[C@@H](F)CC1)c1nsc(Cl)c1Cl` (single isomer, unassigned) [Compound 271, 4,5-dichloro-N-[(2-chloro-3-fluorophenyl)(cis-4-fluoro-1-hydroxycyclohexyl)methyl]-1,2-thiazol-3-carboxamide] showed a 50% inhibitory concentration (IC50) (GlyT1) of 1100 nM.

Turning to `CS(=O)(=O)c1ccc(Cl)cc1C(=O)NC(c1cccc(F)c1Cl)[C@]1(O)CC[C@@H](F)CC1` (single isomer, unassigned) [Compound 364, 5-chloro-N-[(2-chloro-3-fluorophenyl)(cis-4-fluoro-1-hydroxycyclohexyl)methyl]-2-(methylsulfonyl)benzamide], where the note is “GlyT1”, inhibition was half-maximal at 530 nM (IC50).

Regarding `O=C(NC(c1cccc(Cl)c1Cl)C1(O)CCC(F)(F)CC1)c1nccc(C(F)(F)F)c1Cl` (stereo not shown) [Compound 131, 3-chloro-N-[(2,3-dichlorophenyl)(4,4-difluoro-1-hydroxycyclohexyl)methyl]-4-(trifluoromethyl)pyridine-2-carboxamide], the IC50 (GlyT1) came to 160 nM. This IC50 lies about 3.3-fold lower than the previous one.

With `CCn1cc(-c2cccc(C(NC(=O)c3cccc4ccccc34)C3(O)CCC(F)(F)CC3)c2)cn1` (stereo not shown) [Compound 138, N-{(4,4-difluoro-1-hydroxycyclohexyl)[3-(1-ethyl-1H-pyrazol-4-yl)phenyl]methyl}naphthalene-1-carboxamide], under “GlyT1”, the IC50 was 840 nM.

Regarding `O=C(N[C@@H](c1cccc(Cl)c1)[C@]1(O)CC[C@H](F)CC1)c1nccc(C(F)(F)F)c1Cl` [Compound 187, 3-chloro-N-[(S)-(3-chlorophenyl)(trans-4-fluoro-1-hydroxycyclohexyl)methyl]-4-(trifluoromethyl)pyridine-2-carboxamide], 210 nM corresponded to half-maximal inhibition (GlyT1) (IC50).

`CCn1cc(-c2cccc(C(NC(=O)c3cccc(C(F)(F)F)c3F)C3(O)CCC(F)(F)CC3)c2)cn1` (stereo not shown) [Compound 181, N-[(4,4-difluoro-1-hydroxycyclohexyl)[3-(1-ethyl-1H-pyrazol-4-yl)phenyl]methyl}-2-fluoro-3-(trifluoromethyl)benzamide] had an IC50 (GlyT1) of 1500 nM.

With `O=C(NC(c1cccc(Cl)c1F)C1(O)CCC(F)CC1)c1nccc(C(F)(F)F)c1Cl` (single isomer, unassigned) [Compound 199, 3-chloro-N-[(3-chloro-2-fluorophenyl)(4-fluoro-1-hydroxycyclohexyl)methyl]-4-(trifluoromethyl)pyridine-2-carboxamide], the IC50 (GlyT1) amounted to 82 nM.

`Cc1noc2nc(C3CC3)cc(C(=O)NC(c3cccc(F)c3Cl)[C@]3(O)CC[C@@H](F)CC3)c12` (single isomer, unassigned) [Compound 263, N-[(2-chloro-3-fluorophenyl)(cis-4-fluoro-1-hydroxycyclohexyl)methyl]-6-cyclopropyl-3-methyl[1,2]oxazolo[5,4-b]pyridine-4-carboxamide] gave an IC50 (GlyT1) of 990 nM.

With `O=C(NC(c1cccc(F)c1Cl)[C@]1(O)CC[C@@H](F)CC1)c1ncc(C(F)(F)F)cc1-n1nccn1` (single isomer, unassigned) [Compound 392, N-[(2-chloro-3-fluorophenyl)(cis-4-fluoro-1-hydroxycyclohexyl)methyl]-3-(2H-1,2,3-triazol-2-yl)-5-(trifluoromethyl)pyridine-2-carboxamide], half-maximal inhibition (GlyT1) (IC50) required 110 nM.

For the molecule `O=C(NC(c1ccccc1Cl)[C@]1(O)CC[C@@H](F)CC1)c1ccc(C(F)(F)F)nc1Cl` (single isomer, unassigned) [Compound 368, 2-chloro-N-[(2-chlorophenyl)(cis-4-fluoro-1-hydroxycyclohexyl)methyl]-6-(trifluoromethyl)pyridine-3-carboxamide], half-maximal inhibition (GlyT1) (IC50) was put at 760 nM.

`O=C(N[C@H](c1cccc(Br)c1)[C@]1(O)CC[C@H](F)CC1)c1nccc(C(F)(F)F)c1Cl` [Compound 101, N-[(R)-(3-bromophenyl)(trans-4-fluoro-1-hydroxycyclohexyl)methyl]-3-hcloro-4-(trifluoromethyl)pyridine-2-carboxamide] registered an IC50 (GlyT1) of 1500 nM.

In the case of `O=C(NC(c1ccc(Cl)nc1)C1(O)CCC(F)(F)CC1)c1nccc(C(F)(F)F)c1Cl` (single isomer, unassigned) [Compound 278, 3-chloro-N-[(6-chloropyridin-3-yl)(4,4-difluoro-1-hydroxycyclohexyl)methyl]-4-(trifluoromethyl)pyridine-2-carboxamide], inhibition (GlyT1) was half-maximal at 2700 nM (IC50). This IC50 is about 1.8-fold higher than that of the molecule before.

On to `Cc1nc2ccccn2c1C(=O)NC(c1cccc(F)c1Cl)[C@]1(O)CC[C@@H](F)CC1` (single isomer, unassigned) [Compound 261, N-[(2-chloro-3-fluorophenyl)(cis-4-fluoro-1-hydroxycyclohexyl)methyl]-2-methylimidazo[1,2-a]pyridine-3-carboxamide], for which the IC50 (GlyT1) worked out at 7400 nM.

With `O=C(NC(c1cc(F)ccc1Cl)[C@]1(O)CC[C@@H](F)CC1)c1nccc(C(F)(F)F)c1Cl` (single isomer, unassigned) [Compound 374, 3-chloro-N-[(2-chloro-5-fluorophenyl)(cis-4-fluoro-1-hydroxycyclohexyl)methyl]-4-(trifluoromethyl)pyridine-2-carboxamide], the IC50 (GlyT1) was 170 nM.
